Experiments:
[1] = Surface pKa of LNPs, TNS fluorescence assay; type: physicochemical; settings: LNPs formed with the ionizable lipid, pH at 50% LNP protonation
Protocol: The surface pKa values of LNPs were determined as follows. Briefly, solutions of 100 mM citrate buffer at, 100 mM Tris-HCl and 50 mM sodium bicarbonate-sodium hydroxide buffer were titrated to pH values varying by 1 from 3.0 to 11.0 and aliquoted into a clear 96-well plate. LNPs and 2-(p-toluidinyl)naphthalene-6-sulfonic acid (TNS) were diluted into these solutions to obtain a final concentration of 20 μM lipid and 6 μM TNS, respectively. Fluorescence intensity was read on a Glowmax discover plate reader at an excitation of 322 nm and an emission of 430 nm. pKa values were calculated as the pH corresponding to 50% LNP protonation, assuming minimum and maximum fluorescence values corresponded to zero and 100% protonation, respectively.

[2] = Lipids stability characterized by 1H NMR; type: physicochemical; parameters: key: +: the lipid is stable; Minor: the main characteristic peaks of the lipid are present, no major change of the ^1H NMR spectrum is observed, but some extra peaks appearance observed; Major: main the characteristic peaks of the lipid underwent transformation, some peaks can be missing or decreased in intensity, impurity peaks either increased in size or represent main peaks, as observed on ^1H NMR
Protocol: The lipids stability was evaluated by ^1H NMR at −20° C. and at room temperature. “+” means the lipid is stable, “Minor” means the main characteristic peaks of the lipid are present, no major change of the ^1H NMR spectrum is observed, but some extra peaks appearance observed. “Major” means main the characteristic peaks of the lipid underwent transformation, some peaks can be missing or decreased in intensity, impurity peaks either increased in size or represent main peaks, as observed on ^1H NMR. “n.d.” means “not determined”.

[3] = system: gp33 and gp34 specific T-cells; test: In vivo activity of LNPs: specific CD8 T-cells expansion in mice; settings: LNPs prepared using the compound, payload 3-GP mRNA (epitopes encoding gp33/34)
Protocol: LNPs prepared using compounds 100, 105, 106 and 109 respectively were evaluated for specific CD8 T-cells expansion in mice where the payload is 3-GP mRNA (comprising epitopes encoding gp33/34).

SMILES	Surface pKa [1]	Lipids stability characterized by 1H NMR, Room Temperature 1 week ([2]; room temperature)	Lipids stability characterized by 1H NMR, Room Temperature 2 months ([2]; room temperature)	Lipids stability characterized by 1H NMR, Room Temperature 2 weeks ([2]; room temperature)	Lipids stability characterized by 1H NMR, Room Temperature 3 months ([2]; room temperature, 3 months)	Lipids stability characterized by 1H NMR, Room Temperature 3 weeks ([2]; room temperature)	Lipids stability characterized by 1H NMR, Room Temperature 4 weeks ([2]; room temperature)	Lipids stability characterized by 1H NMR, At −20° C. ([2]; 3 months)	specific CD8 T-cells expansion [3]
CCCCCCCCCCCCCCC(/C=C(\C)CCC=C(C)C)OC(=O)CSSCC(=O)OCCCN(C)C (centres unmarked) [Compound 100]	7.5	+	Major	Minor	Major	Minor	Minor	+	effective at expanding both gp33 and gp34 specific T-cells
CCCCC/C=C\CCC(CCCCCCCCCCCCCC)C(CCCCCCCCCCCCCC)OC(=O)CCSSCCC(=O)OCCCN(C)C (centres unmarked) [Compound 109, 3-(dimethylamino)propyl-3-[[3-[2-[(Z)-non-3-enyl]-1-tetradecyl-hexadeoxy]-3-oxo-propyl]disulfanyl]propanoate]	7.0	+	+	+		+	+	+	effective at expanding both gp33 and gp34 specific T-cells
